The results in this text go back to ChEMBL document CHEMBL5357063, “Lysophosphatidylcholines Enriched with cis and trans Palmitoleic Acid Regulate Insulin Secretion via GPR119 Receptor” (ACS Med Chem Lett, 2024).

The source made the active and inactive calls. The rule behind the calls is not given here.

Data set [1] concerns EndoC-betaH1. Description: Induction of glucose stimulated insulin secretion in human EndoC-betaH1 cells at 100 nM incubated for 1 hr in presence of GPR119 antagonist by ELISA method. Type of data set: functional, cell-based.
Data set [2] has as its system EndoC-betaH1. Briefly: Induction of glucose stimulated insulin secretion in human EndoC-betaH1 cells at 5 uM incubated for 1 hr in presence of GPR120 antagonist by ELISA method. The format is functional, cell-based.
Data set [3] concerns EndoC-betaH1. Description: Induction of insulin secretion in human EndoC-betaH1 cells at 5 uM incubated for 1 hr by ELISA method. Type of data set: functional, cell-based.
For data set [4], the system named is EndoC-betaH1. Description: Induction of glucose stimulated insulin secretion in human EndoC-betaH1 cells transfected with siRNA measured after 48 hrs in presence of GPR119 antagonist by ELISA method. Type of data set: functional, cell-based.
Data set [5] concerns EndoC-betaH1. Briefly: Cytotoxicity against human EndoC-betaH1 cells assessed as reduction in cell viability at 1 uM measured after 24 to 72 hrs by PrestoBlue cell viability assay. The format is toxicity, cell-based. The settings on record: endoc-betah1, 1 µM, time 24-72 hrs.
Data set [6] relates to EndoC-betaH1. Description: Cytotoxicity against human EndoC-betaH1 cells assessed as reduction in cell viability at 5 uM measured after 48 to 72 hrs by PrestoBlue cell viability assay. Type of data set: toxicity, cell-based. The settings on record: endoc-betah1, 5 µM, time 48-72 hrs.
The nature of data set [7]: Induction of cAMP production in human EndoC-betaH1 cells at 5 uM measured per mg of protein in presence of GPR119 antagonist by ELISA method. The format is functional.
In data set [8] the test system is EndoC-betaH1. Briefly: Induction of cAMP production in human EndoC-betaH1 cells at 5 uM in presence of GPR120 antagonist by ELISA method. The format is functional, cell-based.
Data set [9] concerns EndoC-betaH1. Description: Induction of glucose stimulated insulin secretion in human EndoC-betaH1 cells at 5 uM incubated for 1 hr in presence of GPR119 antagonist by ELISA method (reference value: 1.97 fmol/microg). The format is functional.
Data set [10] has as its system EndoC-betaH1. Description: Cytotoxicity against human EndoC-betaH1 cells assessed as reduction in cell viability at 10 to 1000 uM measured after 24 to 72 hrs by PrestoBlue cell viability assay. Type of data set: toxicity, cell-based. The note with it: endoc-betah1, 1000 µM, dose lower 10 µM, time lower 24 hrs, dose upper 1000 µM, time upper 72 hrs.
In data set [11] the test system is EndoC-betaH1. Description: Induction of glucose stimulated insulin secretion in human EndoC-betaH1 cells at 5 uM incubated for 1 hr in presence of GPR55 antagonist by ELISA method. The format is functional, cell-based.
In data set [12] the test system is EndoC-betaH1. Description: Effect on intracellular calcium mobilization in human EndoC-betaH1 cells at 5 uM measured after 3 mins. The format is functional, cell-based.
Data set [13] relates to EndoC-betaH1. Briefly: Induction of cAMP production in human EndoC-betaH1 cells at 5 uM in presence of GPR40 antagonist by ELISA method. Type of data set: functional, cell-based.
The subject of a further data set is Cell membrane. Description: Induction of cell membrane permeabilization in human EndoC-betaH1 cells at 10 uM measured upto 3.5 mins propidium iodide staining based fluorescence analysis. Type of data set: subcellular.
For data set [14], the system named is EndoC-betaH1. Description: Induction of glucose stimulated insulin secretion in human EndoC-betaH1 cells at 5 uM incubated for 1 hr in presence of GPR40 antagonist by ELISA method. Type of data set: functional, cell-based.
Data set [15] is described as follows: Induction of cAMP production in human EndoC-betaH1 cells at 5 uM by ELISA method. Type of data set: functional.
Data set [16] relates to EndoC-betaH1. Briefly: Induction of cAMP production in human EndoC-betaH1 cells at 5 uM in presence of GPR55 antagonist by ELISA method. The format is functional, cell-based.
Data set [17] deals with EndoC-betaH1. Briefly: Cytotoxicity against human EndoC-betaH1 cells assessed as reduction in cell viability at 10 uM measured after 24 to 72 hrs by PrestoBlue cell viability assay. The format is toxicity, cell-based. The note with it: endoc-betah1, 10 µM, time 24-72 hrs.
For data set [18], the system named is EndoC-betaH1. Description: Induction of glucose stimulated insulin secretion in human EndoC-betaH1 cells at 1 uM incubated for 1 hr in presence of GPR119 antagonist by ELISA method. Type of data set: functional, cell-based.
Data set [19] concerns EndoC-betaH1. Description: Induction of glucose stimulated insulin secretion in human EndoC-betaH1 cells at 5 uM incubated for 1 hr in presence of GPR119 antagonist by ELISA method (reference value: 2.03 fmol/microg). Type of data set: functional.
For data set [20], the system named is EndoC-betaH1. Description: Induction of glucose stimulated insulin secretion in human EndoC-betaH1 cells at 5 uM incubated for 1 hr in presence of GPR119 antagonist by ELISA method. Type of data set: functional, cell-based.
Data set [21] deals with EndoC-betaH1. Briefly: Induction of cAMP production in human EndoC-betaH1 cells at 5 uM in presence of GPR119 antagonist by ELISA method. Type of data set: functional, cell-based.

With `CC(C)c1noc(C2CCN(c3ncnc(Nc4ccc(S(C)(=O)=O)cc4F)c3[N+](=O)[O-])CC2)n1`, in the data set with EndoC-betaH1 [1], the result was Active.
As to `CCCCCC/C=C/CCCCCCCC(=O)OC[C@@H](O)COP(=O)([O-])OCC[N+](C)(C)C`, the outcome in the data set with EndoC-betaH1 [2], in the data set with EndoC-betaH1 [3], with EndoC-betaH1 [8], with EndoC-betaH1 [11], in the data set on EndoC-betaH1 [13] and with EndoC-betaH1 [14] was Active. In addition, the outcome in the data set on EndoC-betaH1 [4], with EndoC-betaH1 [12] and with Cell membrane was inactive. Besides, the Activity result with EndoC-betaH1 [5] is “Non-Toxic”; in the data set with EndoC-betaH1 [6], “Toxic”; in data set [7], 0.65 pmol; with EndoC-betaH1 [9] it was 1.34 fmol/µg; in the data set on EndoC-betaH1 [10] it was “Toxic”.
`CCCCCC/C=C\CCCCCCCC(=O)OC[C@@H](O)COP(=O)([O-])OCC[N+](C)(C)C`: the Activity in data set [15] was 1.87 pg/µg; in [7], 0.8 pmol; in the data set with EndoC-betaH1 [17] it was “Non-Toxic”; in the data set on EndoC-betaH1 [19], 1.47 fmol/µg. Moreover, the outcome in the data set on EndoC-betaH1 [2], in the data set with EndoC-betaH1 [3], in the data set on EndoC-betaH1 [8], in the data set with EndoC-betaH1 [18], in the data set with EndoC-betaH1 [11] and in the data set on EndoC-betaH1 [13] was Active. Moreover, the outcome in the data set with EndoC-betaH1 [14] was Active. Further, the result with EndoC-betaH1 [4], in the data set with EndoC-betaH1 [16], with EndoC-betaH1 [12] and with Cell membrane was inactive.
`CCCCCCCCCCCCCCCC(=O)OC[C@@H](O)COP(=O)([O-])OCC[N+](C)(C)C`: the result with EndoC-betaH1 [2], in the data set on EndoC-betaH1 [3], in the data set with EndoC-betaH1 [16], in the data set with EndoC-betaH1 [8], in the data set on EndoC-betaH1 [11] and with EndoC-betaH1 [13] was Active. Also, the result in the data set with EndoC-betaH1 [14] and with EndoC-betaH1 [21] was Active. Moreover, the outcome in the data set on EndoC-betaH1 [20], with EndoC-betaH1 [12] and in the data set with Cell membrane was inactive.
